From article PMC6949113, “Preclinical evaluation of AT-527, a novel guanosine nucleotide prodrug with potent, pan-genotypic activity against hepatitis C virus” (PLoS ONE, 2020)

Experiments:
Zika = assay: Anti-Zika virus assay (XTT); type: cell-based; conditions: Zika in Vero cells
Description: Anti-Zika Virus (Zika). […] Monolayers were approximately 70% confluent for the assay. Zika virus strain MR766 was obtained from ATCC (VR-84) and a stock virus pool was produced in LLCMK2 cells.
(§1) Determination of antiviral activity and cytotoxicity.

CoV = assay: Anti-coronavirus assay (XTT); type: cell-based; conditions: MRC5; CoV in MRC-5 cells
Description: as §1

HeLa cells = assay: XTT cytotoxicity, HeLa cells; type: cell-based; conditions: AdV assay
HRV = assay: Anti-human rhinovirus assay (XTT); type: cell-based; conditions: Human rhinovirus sp.; HRV in H1-HeLa cells
Description: (§2) Anti-Human Rhinovirus (HRV).
as §1

H1-HeLa cells = assay: XTT cytotoxicity, H1-HeLa cells; type: cell-based; conditions: HRV assay
Description: as §2, §1

Vero cells = assay: XTT cytotoxicity, Vero cells; type: cell-based, African green monkey; conditions: Zika assay
AdV = assay: Anti-adenovirus assay (XTT); type: cell-based; conditions: unidentified adenovirus; AdV in HeLa cells
Description: as §1

MRC-5 cells = assay: XTT cytotoxicity, MRC-5 cells; type: cell-based; conditions: MRC-5, CoV assay
Description: as §1

## NC(=O)c1ncn([C@@H]2O[C@H](CO)[C@@H](O)[C@H]2O)n1 [Ribavirin]
Zika
  EC50: 5.65 µM
CoV
  EC50: 3.85 µM
HeLa cells
  TC50: 11.7 µM
HRV
  EC50: 17.1 µM
H1-HeLa cells
  TC50: 40.6 µM
Vero cells
  TC50: 38.8 µM
AdV
  EC50: 760 nM
MRC-5 cells
  TC50: >100 µM
